Test results from the kinase profiling compilation of Christmann-Franck et al. (2016).

What was measured:
Assay in all cases: radiometric filter-binding kinase assay
MARK3 (human) = MARK3 (human) (UniProt P27448)
CHEK1 (human) = CHEK1 (human) (UniProt O14757)
AURKA (human) = AURKA (human) (UniProt O14965)
PRKCZ (human) = PRKCZ (human) (UniProt Q05513)
MKNK2 (human) = MKNK2 (human) (UniProt Q9HBH9)
EPHB4 (human) = EPHB4 (human) (UniProt P54760)
MAPK11 (human) = MAPK11 (human) (UniProt Q15759)
DYRK2 (human) = DYRK2 (human) (UniProt Q92630)
MAPK15 (human) = MAPK15 (human) (UniProt Q8TD08)
ERBB4 (human) = ERBB4 (human) (UniProt Q15303)
TTK (human) = TTK (human) (UniProt P33981)
TTK (human), sequence (P33981 whole entry, looked up): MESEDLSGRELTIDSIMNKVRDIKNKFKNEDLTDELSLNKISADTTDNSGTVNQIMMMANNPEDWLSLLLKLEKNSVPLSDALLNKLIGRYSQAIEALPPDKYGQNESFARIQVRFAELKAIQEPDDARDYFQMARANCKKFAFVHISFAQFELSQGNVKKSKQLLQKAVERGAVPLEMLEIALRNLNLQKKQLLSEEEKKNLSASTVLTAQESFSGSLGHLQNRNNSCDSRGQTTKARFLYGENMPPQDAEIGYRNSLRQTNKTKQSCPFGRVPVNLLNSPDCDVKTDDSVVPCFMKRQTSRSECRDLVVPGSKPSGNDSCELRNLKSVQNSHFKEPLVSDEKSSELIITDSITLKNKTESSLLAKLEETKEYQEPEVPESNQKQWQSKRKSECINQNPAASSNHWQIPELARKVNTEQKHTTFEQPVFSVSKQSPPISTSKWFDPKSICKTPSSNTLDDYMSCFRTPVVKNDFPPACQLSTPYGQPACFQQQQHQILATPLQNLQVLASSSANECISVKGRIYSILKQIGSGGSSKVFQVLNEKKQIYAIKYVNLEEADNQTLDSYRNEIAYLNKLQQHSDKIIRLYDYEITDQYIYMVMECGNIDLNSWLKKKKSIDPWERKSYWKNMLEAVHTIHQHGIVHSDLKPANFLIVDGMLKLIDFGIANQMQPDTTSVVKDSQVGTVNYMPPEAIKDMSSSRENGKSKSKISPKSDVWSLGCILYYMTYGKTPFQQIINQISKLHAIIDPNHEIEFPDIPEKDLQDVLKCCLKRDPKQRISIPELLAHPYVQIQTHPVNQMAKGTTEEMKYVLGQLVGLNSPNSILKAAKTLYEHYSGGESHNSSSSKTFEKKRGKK

CaMK1 (human) = CaMK1 (human) (UniProt Q14012)
MAPK9 (human) = MAPK9 (human) (UniProt P45984)
PLK1 (human) = PLK1 (human) (UniProt P53350)
JAK2 JH1 JH2 (human) = JAK2 JH1 JH2 (human) (UniProt O60674)
ROCK2 (rat) = settings: accession and sequence are those of the human protein
PRKACA (human) = PRKACA (human) (UniProt P17612)
NEK2 (human) = NEK2 (human) (UniProt P51955)
MAPKAPK5 (human) = MAPKAPK5 (human) (UniProt Q8IW41)
MAPK13 (human) = MAPK13 (human) (UniProt O15264)
MAPK10 (human) = MAPK10 (human) (UniProt P53779)
MAPK10 (human), sequence (P53779 whole entry, looked up): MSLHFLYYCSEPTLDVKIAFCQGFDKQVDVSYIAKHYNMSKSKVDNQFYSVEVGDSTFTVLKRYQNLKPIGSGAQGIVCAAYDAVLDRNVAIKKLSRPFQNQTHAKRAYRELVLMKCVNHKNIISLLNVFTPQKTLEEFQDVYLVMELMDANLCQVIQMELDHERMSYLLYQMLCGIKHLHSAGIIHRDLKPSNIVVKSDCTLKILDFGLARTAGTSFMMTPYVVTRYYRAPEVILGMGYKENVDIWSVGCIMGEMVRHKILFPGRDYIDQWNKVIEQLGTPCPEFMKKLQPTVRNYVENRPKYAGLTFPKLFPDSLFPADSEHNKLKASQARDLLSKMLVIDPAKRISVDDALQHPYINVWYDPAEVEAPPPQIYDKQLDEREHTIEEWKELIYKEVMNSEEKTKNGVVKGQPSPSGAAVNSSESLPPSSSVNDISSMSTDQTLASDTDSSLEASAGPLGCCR

YES1 (human) = YES1 (human) (UniProt P07947)
YES1 (human), sequence (P07947 whole entry, looked up): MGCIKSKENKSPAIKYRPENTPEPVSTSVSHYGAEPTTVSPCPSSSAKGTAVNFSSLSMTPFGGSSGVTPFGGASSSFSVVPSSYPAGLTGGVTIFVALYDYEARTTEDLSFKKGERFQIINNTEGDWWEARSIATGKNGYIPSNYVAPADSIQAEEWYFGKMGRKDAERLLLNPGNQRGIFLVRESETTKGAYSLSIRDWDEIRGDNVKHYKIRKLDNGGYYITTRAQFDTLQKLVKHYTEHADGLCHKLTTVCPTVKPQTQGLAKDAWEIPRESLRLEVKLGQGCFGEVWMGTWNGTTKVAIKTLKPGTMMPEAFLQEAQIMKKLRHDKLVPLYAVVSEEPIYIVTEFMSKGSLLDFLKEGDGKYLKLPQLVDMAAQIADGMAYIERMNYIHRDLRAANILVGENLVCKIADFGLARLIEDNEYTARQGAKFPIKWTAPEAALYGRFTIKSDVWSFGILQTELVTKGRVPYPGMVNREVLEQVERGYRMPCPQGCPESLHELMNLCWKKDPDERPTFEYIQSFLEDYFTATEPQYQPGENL

PAK4 (human) = PAK4 (human) (UniProt O96013)
PAK4 (human), sequence (O96013 whole entry, looked up): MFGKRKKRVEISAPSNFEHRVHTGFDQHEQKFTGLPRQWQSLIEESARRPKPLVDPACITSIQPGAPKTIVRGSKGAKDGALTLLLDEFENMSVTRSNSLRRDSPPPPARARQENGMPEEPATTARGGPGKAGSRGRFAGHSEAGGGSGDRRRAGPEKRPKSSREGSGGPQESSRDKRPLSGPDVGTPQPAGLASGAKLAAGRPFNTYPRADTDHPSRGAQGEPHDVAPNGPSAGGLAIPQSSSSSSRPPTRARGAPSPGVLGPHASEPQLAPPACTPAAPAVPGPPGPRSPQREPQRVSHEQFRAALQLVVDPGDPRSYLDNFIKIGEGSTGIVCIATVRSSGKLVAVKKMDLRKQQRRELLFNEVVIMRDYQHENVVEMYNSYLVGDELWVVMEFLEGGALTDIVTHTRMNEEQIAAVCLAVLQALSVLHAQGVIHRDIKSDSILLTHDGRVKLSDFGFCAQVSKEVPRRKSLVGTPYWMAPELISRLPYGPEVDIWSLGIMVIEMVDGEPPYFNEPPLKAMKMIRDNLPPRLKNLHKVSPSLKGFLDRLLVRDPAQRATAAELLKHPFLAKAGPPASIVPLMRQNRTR

STK3 (human) = STK3 (human) (UniProt Q13188)
STK3 (human), sequence (Q13188 whole entry, looked up): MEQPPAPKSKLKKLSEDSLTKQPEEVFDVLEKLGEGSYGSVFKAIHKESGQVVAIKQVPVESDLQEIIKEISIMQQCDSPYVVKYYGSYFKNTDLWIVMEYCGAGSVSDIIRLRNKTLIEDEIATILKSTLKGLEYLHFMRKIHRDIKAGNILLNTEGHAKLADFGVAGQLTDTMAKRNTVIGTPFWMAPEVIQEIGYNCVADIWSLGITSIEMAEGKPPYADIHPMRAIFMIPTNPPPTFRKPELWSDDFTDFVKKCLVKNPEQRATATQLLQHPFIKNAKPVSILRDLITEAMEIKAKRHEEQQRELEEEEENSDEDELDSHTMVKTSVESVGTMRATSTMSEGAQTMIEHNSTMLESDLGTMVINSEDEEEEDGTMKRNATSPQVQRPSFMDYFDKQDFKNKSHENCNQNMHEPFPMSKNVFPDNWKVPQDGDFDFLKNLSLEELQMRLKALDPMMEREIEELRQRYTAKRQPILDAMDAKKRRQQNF

MAP3K9 (human) = MAP3K9 (human) (UniProt P80192)
TBK1 (human) = TBK1 (human) (UniProt Q9UHD2)
EPHA4 (human) = EPHA4 (human) (UniProt P54764)
MAPKAPK3 (human) = MAPKAPK3 (human) (UniProt Q16644)
MAPKAPK3 (human), sequence (Q16644 whole entry, looked up): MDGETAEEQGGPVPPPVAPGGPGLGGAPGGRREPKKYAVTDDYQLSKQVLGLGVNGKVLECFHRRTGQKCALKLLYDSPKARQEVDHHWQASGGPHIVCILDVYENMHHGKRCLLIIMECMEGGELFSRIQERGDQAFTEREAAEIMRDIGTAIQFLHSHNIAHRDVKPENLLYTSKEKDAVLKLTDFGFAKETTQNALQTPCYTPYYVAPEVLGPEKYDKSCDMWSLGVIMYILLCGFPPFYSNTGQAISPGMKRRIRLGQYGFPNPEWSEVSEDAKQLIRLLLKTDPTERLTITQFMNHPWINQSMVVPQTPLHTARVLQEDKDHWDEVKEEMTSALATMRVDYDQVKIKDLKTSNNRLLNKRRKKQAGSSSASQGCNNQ

[1] = test system: PAK2 (human), Q13177 [T402E]
PKN2 (human) = PKN2 (human) (UniProt Q16513)
DYRK1A (human) = DYRK1A (human) (UniProt Q13627)
MAP3K7 TAB1 (human) = MAP3K7 TAB1 (human) (UniProt Q15750+O43318)
CSK (human) = CSK (human) (UniProt P41240)
IKBKE (human) = IKBKE (human) (UniProt Q14164)
MYLK (human) = MYLK (human) (UniProt Q15746)

PRKCZ (human), sequence (Q05513 whole entry, looked up): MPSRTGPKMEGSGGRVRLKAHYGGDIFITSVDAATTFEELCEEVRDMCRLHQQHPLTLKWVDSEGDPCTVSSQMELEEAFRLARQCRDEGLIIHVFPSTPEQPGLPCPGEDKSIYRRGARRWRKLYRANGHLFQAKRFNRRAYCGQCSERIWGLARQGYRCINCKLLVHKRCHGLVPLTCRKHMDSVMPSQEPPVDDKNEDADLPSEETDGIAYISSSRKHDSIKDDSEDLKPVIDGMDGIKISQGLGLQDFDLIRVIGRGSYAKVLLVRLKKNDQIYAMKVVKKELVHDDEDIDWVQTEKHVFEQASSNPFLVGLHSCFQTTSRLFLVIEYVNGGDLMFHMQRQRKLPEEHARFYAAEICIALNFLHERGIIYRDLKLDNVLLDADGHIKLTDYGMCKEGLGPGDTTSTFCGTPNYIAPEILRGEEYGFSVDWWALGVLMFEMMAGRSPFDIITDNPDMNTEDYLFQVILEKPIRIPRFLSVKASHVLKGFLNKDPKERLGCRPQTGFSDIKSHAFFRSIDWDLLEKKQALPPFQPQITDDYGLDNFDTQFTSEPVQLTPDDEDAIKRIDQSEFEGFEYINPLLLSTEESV
MARK3 (human), sequence (P27448 whole entry, looked up): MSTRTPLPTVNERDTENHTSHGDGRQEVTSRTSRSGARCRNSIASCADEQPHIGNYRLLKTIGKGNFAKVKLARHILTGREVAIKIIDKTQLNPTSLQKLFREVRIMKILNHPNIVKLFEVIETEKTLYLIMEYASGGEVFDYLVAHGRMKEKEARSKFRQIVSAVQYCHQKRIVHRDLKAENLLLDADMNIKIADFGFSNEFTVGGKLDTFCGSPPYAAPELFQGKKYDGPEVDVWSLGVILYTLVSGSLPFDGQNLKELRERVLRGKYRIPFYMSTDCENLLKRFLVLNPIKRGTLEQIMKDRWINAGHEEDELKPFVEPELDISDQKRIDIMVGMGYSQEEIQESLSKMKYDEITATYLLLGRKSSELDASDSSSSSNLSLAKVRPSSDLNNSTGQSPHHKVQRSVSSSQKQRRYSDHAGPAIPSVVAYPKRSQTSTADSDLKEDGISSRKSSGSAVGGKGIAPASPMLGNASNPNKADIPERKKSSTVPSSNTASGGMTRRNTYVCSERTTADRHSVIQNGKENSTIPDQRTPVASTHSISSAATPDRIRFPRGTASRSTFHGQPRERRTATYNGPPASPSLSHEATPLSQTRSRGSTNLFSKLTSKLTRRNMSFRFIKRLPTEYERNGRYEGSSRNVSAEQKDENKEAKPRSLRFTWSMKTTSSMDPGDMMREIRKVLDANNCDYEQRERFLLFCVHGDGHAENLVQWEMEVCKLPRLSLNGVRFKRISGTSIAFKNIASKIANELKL

O=C1c2ccccc2-c2n[nH]c3cccc1c23
residual activity (MARK3 (human); compound 1.0 µM): 41% | residual activity (MARK3 (human); compound 10.0 µM): 14% | residual activity (CHEK1 (human); compound 1.0 µM): 59% | residual activity (CHEK1 (human); compound 10.0 µM): 26% | residual activity (AURKA (human); compound 1.0 µM): 40% | residual activity (AURKA (human); compound 10.0 µM): 6% | residual activity (PRKCZ (human); compound 1.0 µM): 93% | residual activity (PRKCZ (human); compound 10.0 µM): 89% | residual activity (MKNK2 (human); compound 1.0 µM): 61% | residual activity (MKNK2 (human); compound 10.0 µM): 29% | residual activity (EPHB4 (human); compound 1.0 µM): 113% | residual activity (EPHB4 (human); compound 10.0 µM): 78% | residual activity (MAPK11 (human); compound 1.0 µM): 102% | residual activity (MAPK11 (human); compound 10.0 µM): 38% | residual activity (DYRK2 (human); compound 1.0 µM): 12% | residual activity (DYRK2 (human); compound 10.0 µM): 2% | residual activity (MAPK15 (human); compound 1.0 µM): 39% | residual activity (MAPK15 (human); compound 10.0 µM): 6% | residual activity (ERBB4 (human); compound 1.0 µM): 89% | residual activity (ERBB4 (human); compound 10.0 µM): 74% | residual activity (TTK (human); compound 1.0 µM): 74% | residual activity (TTK (human); compound 10.0 µM): 57% | residual activity (CaMK1 (human); compound 1.0 µM): 70% | residual activity (CaMK1 (human); compound 10.0 µM): 31% | residual activity (MAPK9 (human); compound 1.0 µM): 50% | residual activity (MAPK9 (human); compound 10.0 µM): 15% | residual activity (PLK1 (human); compound 1.0 µM): 113% | residual activity (PLK1 (human); compound 10.0 µM): 110% | residual activity (JAK2 JH1 JH2 (human); compound 1.0 µM): 26% | residual activity (JAK2 JH1 JH2 (human); compound 10.0 µM): 6% | residual activity (ROCK2 (rat); compound 1.0 µM): 75% | residual activity (ROCK2 (rat); compound 10.0 µM): 32% | residual activity (PRKACA (human); compound 1.0 µM): 88% | residual activity (PRKACA (human); compound 10.0 µM): 88% | residual activity (NEK2 (human); compound 1.0 µM): 129% | residual activity (NEK2 (human); compound 10.0 µM): 95% | residual activity (MAPKAPK5 (human); compound 1.0 µM): 78% | residual activity (MAPKAPK5 (human); compound 10.0 µM): 39% | residual activity (MAPK13 (human); compound 1.0 µM): 98% | residual activity (MAPK13 (human); compound 10.0 µM): 26% | residual activity (MAPK10 (human); compound 1.0 µM): 48% | residual activity (MAPK10 (human); compound 10.0 µM): 17% | residual activity (YES1 (human); compound 1.0 µM): 71% | residual activity (YES1 (human); compound 10.0 µM): 33% | residual activity (PAK4 (human); compound 1.0 µM): 80% | residual activity (PAK4 (human); compound 10.0 µM): 25% | residual activity (STK3 (human); compound 1.0 µM): 40% | residual activity (STK3 (human); compound 10.0 µM): 29% | residual activity (MAP3K9 (human); compound 1.0 µM): 11% | residual activity (MAP3K9 (human); compound 10.0 µM): 6% | residual activity (TBK1 (human); compound 1.0 µM): 76% | residual activity (TBK1 (human); compound 10.0 µM): 41% | residual activity (EPHA4 (human); compound 1.0 µM): 84% | residual activity (EPHA4 (human); compound 10.0 µM): 66% | residual activity (MAPKAPK3 (human); compound 1.0 µM): 113% | residual activity (MAPKAPK3 (human); compound 10.0 µM): 66% | residual activity ([1]; compound 1.0 µM): 92% | residual activity ([1]; compound 10.0 µM): 68% | residual activity (PKN2 (human); compound 1.0 µM): 86% | residual activity (PKN2 (human); compound 10.0 µM): 64% | residual activity (DYRK1A (human); compound 1.0 µM): 35% | residual activity (DYRK1A (human); compound 10.0 µM): 7% | residual activity (MAP3K7 TAB1 (human); compound 1.0 µM): 30% | residual activity (MAP3K7 TAB1 (human); compound 10.0 µM): 8% | residual activity (CSK (human); compound 1.0 µM): 91% | residual activity (CSK (human); compound 10.0 µM): 64% | residual activity (IKBKE (human); compound 1.0 µM): 79% | residual activity (IKBKE (human); compound 10.0 µM): 39% | residual activity (MYLK (human); compound 1.0 µM): 26% | residual activity (MYLK (human); compound 10.0 µM): 11%
